IC50 data for one compound are collected here from BindingDB's records for doi:10.1128/aac.00917-07 (Umdnj-New Jersey Medical School, 2007).

The test addresses 1,3-beta-glucan synthase (Aspergillus fumigatus, UniProt P87204, S678P). In words: Inhibition of 1,3-beta-D-glucan synthase EMFR-S678P mutant from Aspergillus fumigatus assessed as incorporation of [3H]glucose.

1,3-beta-glucan synthase, sequence (P87204 entry or part of it S678P): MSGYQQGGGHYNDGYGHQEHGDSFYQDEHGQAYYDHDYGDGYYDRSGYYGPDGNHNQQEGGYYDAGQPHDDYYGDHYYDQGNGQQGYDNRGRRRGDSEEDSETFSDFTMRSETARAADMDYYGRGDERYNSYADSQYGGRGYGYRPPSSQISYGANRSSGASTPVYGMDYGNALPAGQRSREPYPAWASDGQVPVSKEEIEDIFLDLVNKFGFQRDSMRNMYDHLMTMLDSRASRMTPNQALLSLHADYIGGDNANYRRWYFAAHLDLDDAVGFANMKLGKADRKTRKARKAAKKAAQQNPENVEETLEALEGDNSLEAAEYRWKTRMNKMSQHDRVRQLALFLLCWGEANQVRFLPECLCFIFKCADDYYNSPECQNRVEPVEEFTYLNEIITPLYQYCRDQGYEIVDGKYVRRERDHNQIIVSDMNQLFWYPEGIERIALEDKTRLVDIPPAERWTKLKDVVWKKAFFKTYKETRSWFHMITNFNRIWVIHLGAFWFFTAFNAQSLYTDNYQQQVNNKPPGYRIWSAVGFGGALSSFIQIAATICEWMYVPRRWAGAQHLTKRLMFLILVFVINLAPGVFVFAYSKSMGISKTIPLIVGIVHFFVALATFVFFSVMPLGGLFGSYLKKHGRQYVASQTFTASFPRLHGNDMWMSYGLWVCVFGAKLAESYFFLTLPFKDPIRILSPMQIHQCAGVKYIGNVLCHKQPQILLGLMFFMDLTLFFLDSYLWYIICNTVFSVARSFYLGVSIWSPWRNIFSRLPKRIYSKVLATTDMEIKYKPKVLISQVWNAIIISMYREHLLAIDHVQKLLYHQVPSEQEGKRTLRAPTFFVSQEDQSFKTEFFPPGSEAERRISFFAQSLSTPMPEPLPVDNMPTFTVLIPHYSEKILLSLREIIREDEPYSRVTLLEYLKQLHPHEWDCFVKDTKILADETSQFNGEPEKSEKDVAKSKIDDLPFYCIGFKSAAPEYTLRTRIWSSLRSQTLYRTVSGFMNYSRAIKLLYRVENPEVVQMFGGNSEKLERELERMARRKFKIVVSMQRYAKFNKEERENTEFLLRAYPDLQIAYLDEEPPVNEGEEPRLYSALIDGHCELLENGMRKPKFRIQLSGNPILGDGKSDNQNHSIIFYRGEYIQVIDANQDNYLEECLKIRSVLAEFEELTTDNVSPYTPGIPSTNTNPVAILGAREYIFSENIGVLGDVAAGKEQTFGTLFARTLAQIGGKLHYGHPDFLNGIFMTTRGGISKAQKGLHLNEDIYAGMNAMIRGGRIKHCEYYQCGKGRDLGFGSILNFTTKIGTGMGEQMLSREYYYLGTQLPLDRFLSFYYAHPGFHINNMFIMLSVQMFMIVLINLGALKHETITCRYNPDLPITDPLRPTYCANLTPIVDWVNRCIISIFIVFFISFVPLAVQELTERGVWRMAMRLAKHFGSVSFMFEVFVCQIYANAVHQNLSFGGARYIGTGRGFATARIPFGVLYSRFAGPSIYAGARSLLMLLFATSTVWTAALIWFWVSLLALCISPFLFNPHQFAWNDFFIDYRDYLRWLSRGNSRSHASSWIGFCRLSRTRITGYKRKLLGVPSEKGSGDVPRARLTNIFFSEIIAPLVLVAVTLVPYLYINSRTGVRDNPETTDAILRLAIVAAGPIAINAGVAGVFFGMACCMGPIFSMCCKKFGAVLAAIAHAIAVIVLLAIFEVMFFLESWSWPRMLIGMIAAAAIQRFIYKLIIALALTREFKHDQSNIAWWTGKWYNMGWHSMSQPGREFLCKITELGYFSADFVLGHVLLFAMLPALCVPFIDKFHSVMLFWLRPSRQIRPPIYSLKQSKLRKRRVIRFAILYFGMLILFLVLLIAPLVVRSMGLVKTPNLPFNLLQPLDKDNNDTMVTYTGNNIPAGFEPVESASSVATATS

`CCC(C)CC(C)CCCCCCCCC(=O)N[C@H]1C[C@@H](O)[C@@H](NCCN)NC(=O)[C@@H]2[C@@H](O)CCN2C(=O)[C@H]([C@H](O)CCN)NC(=O)[C@H]([C@H](O)[C@@H](O)c2ccc(O)cc2)NC(=O)[C@@H]2C[C@@H](O)CN2C(=O)[C@H]([C@@H](C)O)NC1=O` (stereo partly specified) [CHEBI:474180]: the IC50 (as a rule, the midpoint of a concentration-inhibition curve) came out at 110 nM.
